Measurements reported in patent publication US9167822B2, “Antifungal compositions” (DSM IP ASSETS B.V., priority 2012, dated 2015).
Where “and” joins values, the source holds several entries; their conditions need not be identical. Equal entries are not always repeated.

Assays:
[1] = tested on: Botrytis cinerea; assay: Treatment of strawberries: wounded, inoculated with Botrytis cinerea, then dipped in antifungal composition; assay type: in vivo
Experimental: (§1) Ten fresh, organic strawberries were used per treatment. Each strawberry was wounded with a 0.5 mm long cut and each wound was inoculated with 10 μl of a Botrytis cinerea suspension containing 1×10^5 of spores/ml. […] The pH of the compositions was 4. A composition without natamycin or bixafen was used as control. The treated strawberries were incubated in a closed box in the dark at 20° C.
(§2) During incubation, mould growth on the strawberries was assessed in a twofold manner: (i) the number of moulded strawberries per total of 10 strawberries was counted; and (ii) the antifungal activity (in %) of the individual and combined active ingredients was determined by calculating the reduction in mould growth observed on the strawberries treated with the antifungal composition in comparison to the mould growth on the strawberries treated with the control composition. The expected antifungal activity (E in %) of the combined antifungal composition comprising both active ingredients was calculated according to the Colby equation (Colby, 1967): E=X+Y−[(X·Y)/100] wherein X and Y are the observed antifungal activities (in %) of the individual active ingredients X and Y, respectively. If the observed antifungal activity (O in %) of the combination exceeds the expected antifungal activity (E in %) of the combination and the synergy factor O/E is thus >1.0, the combined application of the active ingredients leads to a synergistic antifungal effect.
The treated strawberries were assessed on mould growth. The antifungal activity (in %) of the individual and combined active ingredients was determined according to the method described in Example 3. […]

[2] = tested on: Botrytis cinerea; assay: Treatment of strawberries: wounded, dipped in antifungal composition, then inoculated with Botrytis cinerea; assay type: in vivo; conditions: 1000 ppm bixafen or both
Experimental: as §1, §2
After treatment, each strawberry was inoculated with 10 μl of a Botrytis cinerea suspension containing 1×10^5 of spores/ml. The treated strawberries were assessed on mould growth according to the two methods described in Example 3.

[3] = tested on: Penicillium italicum; assay: Treatment of apples wounded and inoculated with Penicillium italicum, then dipped; assay type: in vivo; conditions: for Number of moulded apples/total number of 10 apples: 500 ppm natamycin; for Number of moulded apples per total of 10 apples: 250 ppm natamycin
Experimental: Ten fresh, organic apples were used per treatment. Each apple was wounded once using a cork borer according to the method described by de Lapeyre de Bellaire and Dubois (1987). Subsequently, each wound was inoculated with 10 μl of a Penicillium italicum suspension containing 1×10^6 of spores/ml. […] The pH of the compositions was 4. A composition without natamycin or bixafen was used as control. The treated apples were incubated in a closed box in the dark at 20° C. […]
During incubation, the treated apples were assessed on mould growth according to the two methods described in Example 3. […]

[4] = tested on: Penicillium italicum; assay: Treatment of mandarins wounded and inoculated with Penicillium italicum, then dipped; assay type: in vivo
Experimental: Ten fresh, organic mandarins were used per treatment. The peel of each mandarin was wounded once using a cork borer according to the method described by de Lapeyre de Bellaire and Dubois (1987). Subsequently, each wound was inoculated with 10 μl of a Penicillium italicum suspension containing 1×10^5 of spores/ml. […] The pH of the compositions was 4.
The treated mandarins were incubated in a closed box in the dark at 20° C. and assessed on mould growth during incubation.

[5] = tested on: Penicillium italicum; assay: In vitro antifungal activity, 96-well microtiter plates; assay type: cell-based; conditions: 25° C., day 10, 1.25 ppm natamycin, 25 ppm bixafen or both
Experimental: Subsequently, 100 μl of a Botrytis cinerea suspension prepared in PCB medium was used to inoculated each well with 2.5×10^3 spores/ml.
After incubation of the microtiter plates at 25° C., the in vitro antifungal activity (%) of the individual active ingredients was assessed by calculating the reduction in mould growth observed in the presence of the active ingredient in comparison to the mould growth observed in the absence of the active ingredient. The expected antifungal activity (E in %) of the active ingredient combination was calculated according to the Colby equation (Colby, 1967): E=X+Y−[(X·Y)/100] wherein X and Y are the observed antifungal activities (in %) of the individual active ingredients X and Y, respectively. If the observed antifungal activity (O in %) of the combination exceeds the expected antifungal activity (E in %) of the combination and the resulting synergy factor O/E is thus >1.0, the combined application of the active ingredients leads to a synergistic antifungal effect.
Furthermore, Penicillium italicum was used for inoculation.

[6] = day 3, 500 ppm natamycin, 2000 ppm bixafen or both
[7] = day 4, 250 ppm natamycin, 250 ppm bixafen or both
[8] = day 4, 250 ppm natamycin, 500 ppm bixafen or both
[9] = day 4, 500 ppm natamycin, 2000 ppm bixafen or both
[10] = day 6, 250 ppm natamycin, 250 ppm bixafen or both
[11] = day 6, 250 ppm natamycin, 500 ppm bixafen or both
[12] = day 6, 500 ppm natamycin, 2000 ppm bixafen or both
[13] = day 7, 250 ppm natamycin, 250 ppm bixafen or both
[14] = day 7, 250 ppm natamycin, 500 ppm bixafen or both
[15] = day 9, 250 ppm natamycin, 500 ppm bixafen or both
[16] = day 9, 500 ppm natamycin, 2000 ppm bixafen or both
[17] = day 6, 500 ppm natamycin, 1000 ppm bixafen or both
[18] = day 9, 500 ppm natamycin, 1000 ppm bixafen or both
[19] = day 11, 500 ppm natamycin, 2000 ppm bixafen or both
[20] = day 14, 500 ppm natamycin, 1000 ppm bixafen or both
[21] = day 14, 500 ppm natamycin, 2000 ppm bixafen or both

Cn1cc(C(=O)Nc2ccc(F)cc2-c2ccc(Cl)c(Cl)c2)c(C(F)F)n1 [Bixafen, bixafen]
Number of moulded strawberries/total number of 10 strawberries ([1]; Day 3, 20° C., 250 ppm natamycin, 250 ppm bixafen or both): 9 and 9/10 | Number of moulded strawberries/total number of 10 strawberries ([1]; Day 3, 20° C., 500 ppm natamycin, 2000 ppm bixafen or both): 8 and 8/10 | Number of moulded strawberries/total number of 10 strawberries ([1]; Day 4, 20° C., 250 ppm natamycin, 250 ppm bixafen or both): 9 and 9/10 | Number of moulded strawberries/total number of 10 strawberries ([1]; Day 4, 20° C., 500 ppm natamycin, 2000 ppm bixafen or both): 9 and 9/10 | Number of moulded strawberries/total number of 10 strawberries ([1]; Day 5, 20° C., 250 ppm natamycin, 250 ppm bixafen or both): 10 and 10/10 | Number of moulded strawberries/total number of 10 strawberries ([1]; Day 5-6, 20° C., 500 ppm natamycin, 2000 ppm bixafen or both): 10 and 10/10 | Observed antifungal activity O (%) [1, 6]: 62% | Observed antifungal activity O (%) [1, 7]: 47% | Observed antifungal activity O (%) [1, 8]: 65% | Observed antifungal activity O (%) [1, 9]: 55% | Observed antifungal activity O (%) ([1]; day 5, 250 ppm natamycin, 250 ppm bixafen or both): 33% | Observed antifungal activity O (%) ([1]; day 5, 500 ppm natamycin, 2000 ppm bixafen or both): 34% | Observed antifungal activity O (%) [1, 10]: 23% | Observed antifungal activity O (%) [1, 11]: 33% | Observed antifungal activity O (%) [1, 12]: 27% | Observed antifungal activity O (%) [1, 13]: 10% | Observed antifungal activity O (%) [1, 14]: 12% | Observed antifungal activity O (%) ([1]; day 7, 500 ppm natamycin, 2000 ppm bixafen or both): 12% | Observed antifungal activity O (%) [1, 15]: 5% | Observed antifungal activity O (%) [1, 16]: 3% | Observed antifungal activity O (%) ([1]; day 10, 250 ppm natamycin, 500 ppm bixafen or both): 0% | Observed antifungal activity O (%) ([2]; day 3, 500 ppm natamycin): 72% | Number of moulded wounds/total number of 10 wounds ([2]; day 5, 20° C., 250 ppm natamycin): 8 and 8/10 | Observed antifungal activity O (%) ([2]; day 5, 500 ppm natamycin): 55% | Observed antifungal activity O (%) ([2]; day 6, 500 ppm natamycin): 35% | Number of moulded apples/total number of 10 apples ([3]; Day 3, 20° C., 1000 ppm bixafen or both): 6 and 6/10 | Number of moulded apples/total number of 10 apples ([3]; Day 3-4, 20° C., 2000 ppm bixafen or both): 5/10 | Number of moulded apples/total number of 10 apples ([3]; Day 4, 20° C., 1000 ppm bixafen or both): 6 and 6/10 | Number of moulded apples per total of 10 apples ([3]; Day 6, 20° C., 500 ppm bixafen or both): 10 and 10/10 | Number of moulded apples/total number of 10 apples ([3]; Day 6, 20° C., 1000 ppm bixafen or both): 8 and 8/10 | Number of moulded apples/total number of 10 apples ([3]; Day 6, 20° C., 2000 ppm bixafen or both): 8 and 8/10 | Number of moulded apples per total of 10 apples ([3]; Day 6-9, 20° C., 250 ppm bixafen or both): all and 10/10 | Number of moulded apples per total of 10 apples ([3]; Day 7, 20° C., 500 ppm bixafen or both): 10 and 10/10 | Number of moulded apples/total number of 10 apples ([3]; Day 7, 20° C., 1000 ppm bixafen or both): 9 and 9/10 | Number of moulded apples/total number of 10 apples ([3]; Day 7, 20° C., 2000 ppm bixafen or both): 8 and 8/10 | Number of moulded apples per total of 10 apples ([3]; Day 9, 20° C., 500 ppm bixafen or both): 10 and 10/10 | Number of moulded apples/total number of 10 apples ([3]; Day 9-14, 20° C., 1000 ppm bixafen or both): all and 10/10 | Number of moulded apples/total number of 10 apples ([3]; Day 9-14, 20° C., 2000 ppm bixafen or both): all and 10/10 | Number of moulded apples per total of 10 apples ([3]; Day 11-15, 20° C., 250 ppm bixafen or both): all and 10/10 | Observed antifungal activity O (%) ([3]; day 3, 500 ppm natamycin, 1000 ppm bixafen or both): 47% | Observed antifungal activity O (%) [3, 6]: 60% | Observed antifungal activity O (%) ([3]; day 6, 250 ppm natamycin, 250 ppm bixafen or both (bixafen 500 ppm)): 17% | Observed antifungal activity O (%) [3, 11]: 33% | Observed antifungal activity O (%) [3, 17]: 44% | Observed antifungal activity O (%) [3, 12]: 39% | Observed antifungal activity O (%) [3, 14]: 39% | Observed antifungal activity O (%) ([3]; day 9, 250 ppm natamycin, 250 ppm bixafen or both (bixafen 500 ppm)): 13% | Observed antifungal activity O (%) [3, 15]: 17% | Observed antifungal activity O (%) [3, 18]: 38% | Observed antifungal activity O (%) [3, 16]: 29% | Observed antifungal activity O (%) ([3]; day 11, 250 ppm natamycin, 250 ppm bixafen or both (bixafen 500 ppm)): 0% | Observed antifungal activity O (%) ([3]; day 11, 500 ppm natamycin, 1000 ppm bixafen or both): 30% | Observed antifungal activity O (%) [3, 19]: 30% | Observed antifungal activity O (%) ([3]; day 14, 250 ppm natamycin, 250 ppm bixafen or both (bixafen 500 ppm)): 6% | Observed antifungal activity O (%) [3, 20]: 21% | Observed antifungal activity O (%) [3, 21]: 36% | Observed antifungal activity O (%) ([4]; day 3, 250 ppm natamycin, 250 ppm bixafen or both): 65% | Observed antifungal activity O (%) [4, 7]: 27% | Observed antifungal activity O (%) [4, 8]: 40% | Observed antifungal activity O (%) ([4]; day 4, 500 ppm natamycin, 1000 ppm bixafen or both): 37% | Observed antifungal activity O (%) [4, 9]: 47% | Observed antifungal activity O (%) [4, 10]: 28% | Observed antifungal activity O (%) [4, 11]: 26% | Observed antifungal activity O (%) [4, 17]: 22% | Observed antifungal activity O (%) [4, 12]: 32% | Observed antifungal activity O (%) [4, 13]: 10% | Observed antifungal activity O (%) [4, 14]: 10% | Observed antifungal activity O (%) ([4]; day 7, 500 ppm natamycin, 1000 ppm bixafen or both): 6% | Observed antifungal activity O (%) ([4]; day 9, 250 ppm natamycin, 250 ppm bixafen or both): 0% | Observed antifungal activity O (%) [4, 15]: 0% | Observed antifungal activity O (%) [4, 18]: 2% | Observed antifungal activity O (%) [4, 16]: 7% | Observed antifungal activity O (%) ([4]; day 11, 250 ppm natamycin, 500 ppm bixafen or both): 0% | Observed antifungal activity O (%) [4, 19]: 9% | Observed antifungal activity O (%) ([4]; day 13, 250 ppm natamycin, 500 ppm bixafen or both): 0% | Observed antifungal activity O (%) [4, 20]: 0% | Observed antifungal activity O (%) [4, 21]: 3% | Observed antifungal activity O (%) ([4]; day 15, 250 ppm natamycin, 500 ppm bixafen or both): 0% | Observed antifungal activity O (%) ([4]; day 15, 500 ppm natamycin, 1000 ppm bixafen or both): 0% | Observed antifungal activity O (%) ([4]; day 15, 500 ppm natamycin, 2000 ppm bixafen or both): 0% | Observed antifungal activity O (%) [5]: 50%
